Read-outs that look alike come from different tables or passages of the source.
Key:
[1] = solubility of aluminum phthalocyanines in water and solvents; conditions: for solubility in polar, protic solvents such as methanol: effect of axial ligand L
From the text: The following "R" substituents (R₁ and/or R₂) bound to the phthalocyanine macrocycle 1 can serve as suitable water-solubilizing moieties: sulfonic acid groups (-SO₃H), sulfonate groups (-SO₃⁻, X⁺), carboxylic acid groups (-CO₂H), carboxylate groups (-CO₂⁻, X⁺), phosphoric acid groups (-PO₄H₂), phosphate groups (-PO₄⁻⁻, 2X⁺), phosphonate groups (-PO₃H or -PO₃⁻, X⁺), hydroxy or phenoxy groups (-OH), amino groups (-NH₂), and ammonium and pyridinium groups (-NR₄⁺, X⁻).
To enhance water solubility, L should be -OZ or -NZ₂ wherein Z is selected from among hydrogen, alkyl, acyl, and silyl groups, the latter three preferably being charged.

[2] = fluorescence and UV-VIS spectroscopy of phthalocyanine derivatives; type: physicochemical
From the text: As a family of chromophores the metallophthalocyanines are characterized by a very narrow and strong absorption in the red envelope centered around 670 nm (Eo=230,000) and a broad and less intense absorption (Eo=60,000) at around 350 nm.
It is contemplated that other metal atoms (M) with +3 valences or higher may take on an axial ligand(s) in the phthalocyanine macrocycle, thereby conferring a similar resistance to aggregation in aqueous solution. For use as fluorescent species, the metal should be diamagnetic and have a lower atomic weight than that of […], so as to avoid a heavy-atom quenching effect; suitable metal atoms for the latter purpose include aluminum, silicon, phosphorus, gallium, germanium, and tin. […] Both processes give rise to radiationless deactivation of the excited state and serve to decrease the fluorescent quantum yield.
The ultimate sensitivity of a fluorogenic enzyme assay is determined by the spectral properties of the generated fluorophore.

[3] = type: physicochemical
Method: The phthalocyanines are thermally stable, and are often purified by sublimation at temperatures greater than 400°C. Chemically, the phthalocyanines are resistant to acidic or basic hydrolysis, oxidation, and reduction.

[4] = tested on: antimorphine monoclonal antibody; test: competition experiment with antimorphine monoclonal antibody and tritium-labeled morphine (relative immunoaffinity); type: binding
Method: The relative immunoaffinity of morphine, the amino morphine analog, and the amino-morphine derivative of mono-PABA-sulfonyl aluminum phthalocyanine disulfonate was determined in a competition experiment with antimorphine monoclonal antibody and tritium-labeled morphine.

[5] = λmax 678.5 nm, in chloronaphthalene; cited from earlier work

Molecule: [Cl][Al]1[n]2c3c4ccccc4c2/N=C2N=C(/N=c4/c5ccccc5/c([n]41)=N/C1=NC(=N\3)/c3ccccc31)c1ccccc1\2 [chloraluminum phthalocyanine]
- solubility in polar, protic solvents such as methanol [1]: but not chloraluminum phthalocyanine is soluble in polar, protic solvents

Molecule: aluminum phthalocyanine trisulfonate
- Stokes shift [2]: 335 nm
- fluorescence emission lifetime [2]: 5 ns
- polarization coefficient [2]: 0.005
- quantum yield when aggregated ([2]; aggregated): < 0.02
- quantum yield when aggregated, of its original value ([2]; aggregated): less than 4%
- emission wavelength ([2]; excitation at 350 nm): 680 nm
- solubility in water [1]: high water solubility
- photochemical stability [3]: photochemically inert

Molecule: [OH][Al]1[n]2c3c4ccccc4c2N=C2N=C(N=c4c5ccccc5c([n]41)=NC1=NC(=N3)c3ccccc31)c1ccccc12 [hydroxyaluminum phthalocyanine]
- solubility in polar, protic solvents such as methanol [1]: soluble in polar, protic solvents such as methanol

Molecule: CN1CC[C@]23c4c5ccc(O)c4O[C@H]2[C@@H](O)C=C[C@H]3[C@H]1C5 [morphine, reference compound]
- Relative Affinity [4]: 1

Molecule: c1ccc2c(c1)C1=NC2=Nc2c3ccccc3c3[n]2[Cu][n]2c(c4ccccc4c2=NC2=NC(=N3)c3ccccc32)=N1 [compound 9, Copper phthalocyanine]
- molar absorptivity ε [5]: 218,500

Molecule: [OH][Al]1[n]2c3c4ccccc4c2N=C2N=C(N=c4c5ccccc5c([n]41)=NC1=NC(=N3)c3ccccc31)c1ccccc12 [aluminum phthalocyanine, reference compound]
- Stokes shift [2]: 330 nm
- solubility in water ([1]; water): poorly soluble in water

Molecule: copper(II)phthalocyanine trisulfonate [reference compound]
- fluorescence quantum yield relative to aluminum(III)phthalocyanine trisulfonate ([2]; comparative example): more than 200 times less

Molecule: 3-(4-aminobutyl)morphine [amino morphine]
- Relative Affinity ([4]; relative affinity of antimorphine monoclonal antibody for competitor versus tritium-labeled morphine): 1

— EP0335902B1, “MONOMERIC PHTHALOCYANINE REAGENTS” (BRITISH TECHNOLOGY GROUP USA INC., priority 1986, dated 1988)
